Data: US6759547B1, “5,6,7,8-tetrahydronaphthalen-2-yl 2,6-difluoroheptatrienoic acid derivatives having serum glucose reducing activity” (Allergan, Inc., priority 2003, dated 2004)
pEC50, pKi: −log10 of the molar value.

How the values were obtained:
RARβ [1] = biological target: T1, RARβ (Homo sapiens, UniProt P10826); test: chimeric receptor transactivation assay, RARβ; format: cell-based; settings: for pEC50: chimeric assay, read-out: RAR Trans. EC50 β; for RAR Trans. efficacy β: efficacy as a percentage compared to the standard compound
T1 sequence (P10826 183-417 limits assumed): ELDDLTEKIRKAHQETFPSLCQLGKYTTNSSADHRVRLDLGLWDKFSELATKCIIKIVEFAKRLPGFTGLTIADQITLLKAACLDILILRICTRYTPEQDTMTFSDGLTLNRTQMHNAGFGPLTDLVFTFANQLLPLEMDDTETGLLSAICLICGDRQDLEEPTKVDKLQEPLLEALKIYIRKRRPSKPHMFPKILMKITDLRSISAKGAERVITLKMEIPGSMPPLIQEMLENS
Text: One such assay is a chimeric receptor transactivation assay which tests for agonist-like activity in the RARα RARβ and RARγ receptor subtypes, and which is based on work published by Feigner P. L. and Holm M. (1989) Focus, 112 is described in detail in U.S. Pat. No. 5,455,265. The specification of U.S. Pat. No. 5,455,265 is hereby expressly incorporated by reference.
Table 1 discloses the activity of certain exemplary compounds of the invention in the above-described receptor transactivation and binding assays. Particularly, the transactivation data pertaining to activation of the RAR receptors were obtained in the chimeric assay, and the transactivation data pertaining to the activation of RXR receptors were obtained in the holoreceptor assay.

RXRα [2] = biological target: T2, RXRα (Homo sapiens, UniProt P19793); test: holoreceptor transactivation assay, RXRα; format: cell-based; settings: for RXR Trans. efficacy α: efficacy as a percentage compared to the standard compound; for pEC50: holoreceptor assay, read-out: RXR Trans. EC50 α
T2 construct: expressed in transfected cells
T2 sequence (P19793 1-462): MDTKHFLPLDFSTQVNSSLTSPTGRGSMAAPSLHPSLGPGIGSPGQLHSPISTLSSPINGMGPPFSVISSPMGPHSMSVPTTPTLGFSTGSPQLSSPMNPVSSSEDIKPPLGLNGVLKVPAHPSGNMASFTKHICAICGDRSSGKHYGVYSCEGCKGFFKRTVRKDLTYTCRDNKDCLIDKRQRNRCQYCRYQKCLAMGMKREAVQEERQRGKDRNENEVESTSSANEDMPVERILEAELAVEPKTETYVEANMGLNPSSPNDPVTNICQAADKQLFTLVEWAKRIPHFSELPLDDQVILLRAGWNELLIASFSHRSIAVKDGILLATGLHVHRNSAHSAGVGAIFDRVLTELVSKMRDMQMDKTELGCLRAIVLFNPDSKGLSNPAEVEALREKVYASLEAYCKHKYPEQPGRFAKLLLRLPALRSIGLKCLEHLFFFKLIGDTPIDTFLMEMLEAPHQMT
Text: (§1) Particularly, the transactivation data pertaining to activation of the RAR receptors were obtained in the chimeric assay, and the transactivation data pertaining to the activation of RXR receptors were obtained in the holoreceptor assay.

RXRβ [3] = biological target: T3, RXRβ (Homo sapiens, UniProt P28702); test: holoreceptor transactivation assay, RXRβ; format: cell-based; settings: for RXR Trans. efficacy β: efficacy as a percentage compared to the standard compound; for pEC50: holoreceptor assay, read-out: RXR Trans. EC50 β; for efficacy in activating RXRβ compared with RXRα and RXRγ: transactivation, comparison of subtypes
T3 construct: expressed in transfected cells
T3 sequence (P28702 1-533): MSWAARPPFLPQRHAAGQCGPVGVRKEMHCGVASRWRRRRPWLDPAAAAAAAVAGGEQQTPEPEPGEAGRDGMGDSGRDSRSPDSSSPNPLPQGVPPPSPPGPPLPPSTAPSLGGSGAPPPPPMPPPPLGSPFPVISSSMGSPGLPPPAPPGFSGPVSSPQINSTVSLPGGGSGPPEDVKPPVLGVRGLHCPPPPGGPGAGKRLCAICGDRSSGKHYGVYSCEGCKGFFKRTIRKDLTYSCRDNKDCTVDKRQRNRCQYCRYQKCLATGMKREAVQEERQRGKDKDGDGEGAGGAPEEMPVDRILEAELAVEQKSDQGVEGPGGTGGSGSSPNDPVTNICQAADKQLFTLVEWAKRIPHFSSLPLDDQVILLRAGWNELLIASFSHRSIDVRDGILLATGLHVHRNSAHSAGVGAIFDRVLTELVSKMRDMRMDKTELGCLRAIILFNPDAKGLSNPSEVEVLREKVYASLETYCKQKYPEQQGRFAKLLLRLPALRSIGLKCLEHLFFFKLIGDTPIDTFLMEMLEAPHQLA
Text: as §1

RARα = biological target: T4, RARα (Homo sapiens, UniProt P10276); test: ligand binding assay, RARα; settings: read-out: RAR Bind. K1 α
T4 sequence (P10276 1-462): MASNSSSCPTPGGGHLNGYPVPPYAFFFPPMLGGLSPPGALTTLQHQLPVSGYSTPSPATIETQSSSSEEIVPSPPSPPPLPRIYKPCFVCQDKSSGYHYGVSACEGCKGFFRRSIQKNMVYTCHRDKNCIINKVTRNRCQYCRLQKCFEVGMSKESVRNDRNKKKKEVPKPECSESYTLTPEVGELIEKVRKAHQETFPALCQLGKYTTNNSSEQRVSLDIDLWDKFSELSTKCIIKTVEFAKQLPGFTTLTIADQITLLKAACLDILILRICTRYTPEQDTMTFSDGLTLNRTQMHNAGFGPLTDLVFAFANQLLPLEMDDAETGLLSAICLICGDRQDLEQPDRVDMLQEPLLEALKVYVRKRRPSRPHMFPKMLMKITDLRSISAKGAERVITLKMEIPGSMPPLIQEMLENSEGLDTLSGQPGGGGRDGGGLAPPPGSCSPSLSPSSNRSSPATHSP
Text: (§2) The results obtained in this assay are expressed in EC50 numbers, as they are also in the chimeric receptor transactivation assay. The results of the ligand binding assay are expressed in Ki numbers.

RARβ [4] = biological target: T5, RARβ (Homo sapiens, UniProt P10826); test: ligand binding assay, RARβ; settings: read-out: RAR Bind. K1 β
T5 sequence (P10826 1-455): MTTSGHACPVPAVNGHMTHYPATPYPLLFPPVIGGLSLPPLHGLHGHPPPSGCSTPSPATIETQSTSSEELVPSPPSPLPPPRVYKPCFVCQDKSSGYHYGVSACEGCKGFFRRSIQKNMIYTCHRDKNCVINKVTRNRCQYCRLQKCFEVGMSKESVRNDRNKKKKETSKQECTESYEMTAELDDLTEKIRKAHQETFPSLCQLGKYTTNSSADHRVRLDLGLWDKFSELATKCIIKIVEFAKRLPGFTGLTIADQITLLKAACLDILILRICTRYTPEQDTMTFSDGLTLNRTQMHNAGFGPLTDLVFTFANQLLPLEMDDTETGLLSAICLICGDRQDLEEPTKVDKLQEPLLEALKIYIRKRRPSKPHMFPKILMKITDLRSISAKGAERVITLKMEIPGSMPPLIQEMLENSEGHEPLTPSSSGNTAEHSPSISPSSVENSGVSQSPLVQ
Text: as §2

RXRα [5] = biological target: T2, RXRα; test: ligand binding assay, RXRα; settings: read-out: RXR Bind K1 α
Text: as §2

RXRβ [6] = biological target: T3, RXRβ; test: ligand binding assay, RXRβ; settings: read-out: RXR Bind K1 β
Text: The results of the ligand binding assay are expressed in Ki numbers.

**Q.** With CCOc1cc2c(cc1\C(CC)=C(F)/C=C/C(C)=C(\F)C(=O)O)C(C)(C)CCC2(C)C [Compound 27, (2Z,4E,6E)-7-(3-Ethoxy-5,5,8,8-tetramethyl-5,6,7,8-tetrahydro-naphthalen-2-yl)-2,6-difluoro-3-methyl-nona-2,4,6-trienoic acid] as the compound, how does the pEC50 (RARβ [1]) read?
**A.** Its pEC50 is 7.02.

**Q.** What about the “RAR Trans. efficacy β” value (RARβ [1]) of the same compound?
**A.** Its value is 14%.

**Q.** What about the “RXR Trans. efficacy α” value (RXRα [2]) of the same compound?
**A.** The value was 30%.

**Q.** What about the pEC50 (RXRα [2]) of the same compound?
**A.** Its pEC50 is 8.40.

**Q.** What about the “RXR Trans. efficacy β” value (RXRβ [3]) of the same compound?
**A.** Its value is 43%.

**Q.** What about the pEC50 (RXRβ [3]) of the same compound?
**A.** The pEC50 was 7.49.

**Q.** And the “efficacy in activating RXRβ compared with RXRα and RXRγ” value (RXRβ [3])?
**A.** Its value is “significantly more effective in activating the RXRβ subtype”.

**Q.** What about the pKi (RARα) of the same compound?
**A.** The pKi was 6.03.

**Q.** And the pKi (RARβ [4])?
**A.** Its pKi is 5.74.

**Q.** What about the pKi (RXRα [5]) of the same compound?
**A.** The pKi was 8.30.

**Q.** And the pKi (RXRβ [6])?
**A.** The pKi was 7.70.

**Q.** What does the source list for CCCOc1cc2c(cc1\C(C)=C(F)/C=C/C(C)=C(\F)C(=O)O)C(C)(C)CCC2(C)C [Compound 11, (2Z,4E,6E)-2,6-Difluoro-3-methyl-7-(5,5,8,8-tetramethyl-3-propoxy-5,6,7,8-tetrahydro-naphthalen-2-yl)-octa-2,4,6-trienoic acid]?
**A.** pEC50 (RARβ [1]): < 6.00; RAR Trans. efficacy β (RARβ [1]): 25%; RXR Trans. efficacy α (RXRα [2]): 7%; pEC50 (RXRα [2]): 8.52; RXR Trans. efficacy β (RXRβ [3]): 24%; pEC50 (RXRβ [3]): 7.37; efficacy in activating RXRβ compared with RXRα and RXRγ (RXRβ [3]): significantly more effective in activating the RXRβ subtype; pKi (RARα): 5.74; pKi (RARβ [4]): 5.76; pKi (RXRα [5]): 7.96; pKi (RXRβ [6]): 7.19

**Q.** With CC/C(=C(F)/C=C/C(C)=C(\F)C(=O)O)c1cc2c(cc1OCOC)C(C)(C)CCC2(C)C [Compound 21, (2Z,4E,6E)-2,6-Difluoro-7-(3-methoxymethoxy-5,5,8,8-tetramethyl-5,6,7,8-tetrahydro-naphthalen-2-yl)-3-methyl-nona-2,4,6-trienoic acid] as the compound, how does the pEC50 (RARβ [1]) read?
**A.** The pEC50 was 6.77.

**Q.** What about the “RAR Trans. efficacy β” value (RARβ [1]) of the same compound?
**A.** Its value is 24%.

**Q.** What about the “RXR Trans. efficacy α” value (RXRα [2]) of the same compound?
**A.** Its value is 41%.

**Q.** And the pEC50 (RXRα [2])?
**A.** The pEC50 was 8.05.

**Q.** What about the “RXR Trans. efficacy β” value (RXRβ [3]) of the same compound?
**A.** Its value is 45%.

**Q.** What about the pEC50 (RXRβ [3]) of the same compound?
**A.** Its pEC50 is 7.04.

**Q.** And the “efficacy in activating RXRβ compared with RXRα and RXRγ” value (RXRβ [3])?
**A.** The value was “significantly more effective in activating the RXRβ subtype”.

**Q.** What about the pKi (RARα) of the same compound?
**A.** The pKi was 6.59.

**Q.** And the pKi (RARβ [4])?
**A.** The pKi was 6.23.

**Q.** And the pKi (RXRα [5])?
**A.** Its pKi is 7.92.

**Q.** What about the pKi (RXRβ [6]) of the same compound?
**A.** The pKi was 7.22.
